# Reference: patent US20240409585A1, “MACROCYCLIC IMMUNOMODULATORS” (priority 2021, published 2024)
# Bridge positions count the residues as written; N and C are the ends. Square brackets hold non-standard residues; d marks the D form. Peptide text beside a SMILES is read from it. * marks the point of attachment. Tyr(3-NO2) = N[C@@H](Cc1ccc(O)c([N+](=O)[O-])c1)C(=O)O; Phe(4-COOH) = N[C@@H](Cc1ccc(C(=O)O)cc1)C(=O)O; Bip = N[C@@H](Cc1ccc(-c2ccccc2)cc1)C(=O)O; hArg = N=C(N)NCCCC[C@H](N)C(=O)O; 2Pal = N[C@@H](Cc1ccccn1)C(=O)O; 3Pal = N[C@@H](Cc1cccnc1)C(=O)O; 4Pal = N[C@@H](Cc1ccncc1)C(=O)O; Cit = NC(=O)NCCC[C@H](N)C(=O)O; Carboxymethyl = O=C(O)C*; NMeA = CN[C@@H](C)C(=O)O; Orn = NCCC[C@H](N)C(=O)O; Dab = NCC[C@H](N)C(=O)O
# Biological target: T1, PE-labeled human PD-L1-Ig binding to Jurkat cell line over-expressing human PD-1 (Jurkat-PD-1) (Homo sapiens, UniProt Q15116)
# T1 construct: expressed in transfected cells; host or cells: Jurkat
# Test: Jurkat-PD-1 Cell Binding High-Content Screening Assay (CBA): Method 1
# Conditions: Jurkat-hPD-1 cells, PE-labeled PD-L1-Ig 20 nM final; read-out: Jurkat HPDL1 PD1 IC50 (uM) (Method 1)
# T1 sequence (Q15116 25-288): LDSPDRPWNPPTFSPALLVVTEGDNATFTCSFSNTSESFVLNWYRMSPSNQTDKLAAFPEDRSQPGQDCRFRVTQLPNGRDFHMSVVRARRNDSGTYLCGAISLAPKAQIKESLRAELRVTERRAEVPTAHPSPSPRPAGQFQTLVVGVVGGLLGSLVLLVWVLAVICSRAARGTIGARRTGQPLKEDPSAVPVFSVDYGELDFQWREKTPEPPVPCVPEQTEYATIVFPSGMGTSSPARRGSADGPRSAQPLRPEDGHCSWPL
row,IC50 [µM],SMILES
1,0.01,CC(C)C[C@@H]1NC(=O)[C@H](CCN)NC(=O)[C@@H](CC(C)C)NC(=O)[C@H](C)N(C)C(=O)[C@H](CCCNC(N)=O)NC(=O)[C@H](Cc2ccc(-c3ccccc3)cc2)NC(=O)[C@H](C(C)C)NC(=O)[C@H](Cc2c[nH]c3ccccc23)NC(=O)[C@H](CC(=O)O)NC(=O)[C@H](Cc2ccc(C(=O)O)cc2)NC(=O)[C@H](Cc2ccncc2)NC(=O)CSC[C@@H](C(=O)N[C@@H](C)C(N)=O)NC(=O)[C@H]([C@@H](C)O)NC(=O)[C@H](C(C)C)NC1=O [Compound 1328] ({CH2CO}-[4Pal][Phe(4-COOH)]DWV[Bip][Cit][NMeA][dL][Dab]LVTCA-NH2; thioether N-14)
2,0.19,CC(C)C[C@@H]1NC(=O)[C@H](CCN)NC(=O)[C@@H](CC(C)C)NC(=O)[C@H](C)N(C)C(=O)[C@H](CCCNC(N)=O)NC(=O)[C@H](Cc2ccc(-c3ccccc3)cc2)NC(=O)[C@H](C(C)C)NC(=O)[C@H](Cc2c[nH]c3ccccc23)NC(=O)[C@H](CC(=O)O)NC(=O)[C@H](Cc2ccc(OCC(=O)O)cc2)NC(=O)[C@H](Cc2ccccn2)NC(=O)CSC[C@@H](C(=O)N[C@@H](C)C(N)=O)NC(=O)[C@H]([C@@H](C)O)NC(=O)[C@H](C(C)C)NC1=O [Compound 1329] ({CH2CO}-[2Pal]Y(Carboxymethyl)DWV[Bip][Cit][NMeA][dL][Dab]LVTCA-NH2; thioether N-14)
3,0.04,CC(C)C[C@@H]1NC(=O)[C@H](CCN)NC(=O)[C@@H](CC(C)C)NC(=O)[C@H](C)N(C)C(=O)[C@H](CCCNC(N)=O)NC(=O)[C@H](Cc2ccc(-c3ccccc3)cc2)NC(=O)[C@H](C(C)C)NC(=O)[C@H](Cc2c[nH]c3ccccc23)NC(=O)[C@H](CC(=O)O)NC(=O)[C@H](Cc2ccc(C(=O)O)cc2)NC(=O)[C@H](Cc2ccccn2)NC(=O)CSC[C@@H](C(=O)N[C@@H](C)C(N)=O)NC(=O)[C@H]([C@@H](C)O)NC(=O)[C@H](C(C)C)NC1=O [Compound 1330] ({CH2CO}-[2Pal][Phe(4-COOH)]DWV[Bip][Cit][NMeA][dL][Dab]LVTCA-NH2; thioether N-14)
4,0.01,CC(C)C[C@@H]1NC(=O)[C@H](CCN)NC(=O)[C@@H](CC(C)C)NC(=O)[C@H](C)N(C)C(=O)[C@H](CCCNC(N)=O)NC(=O)[C@H](Cc2ccc(-c3ccccc3)cc2)NC(=O)[C@H](C(C)C)NC(=O)[C@H](Cc2c[nH]c3ccccc23)NC(=O)[C@H](CC(=O)O)NC(=O)[C@H](Cc2ccc(OCC(=O)O)cc2)NC(=O)[C@H](Cc2cccnc2)NC(=O)CSC[C@@H](C(=O)N[C@@H](C)C(N)=O)NC(=O)[C@H]([C@@H](C)O)NC(=O)[C@H](C(C)C)NC1=O [Compound 1331] ({CH2CO}-[3Pal]Y(Carboxymethyl)DWV[Bip][Cit][NMeA][dL][Dab]LVTCA-NH2; thioether N-14)
5,0.03,CC(C)C[C@@H]1NC(=O)[C@H](CCN)NC(=O)[C@@H](CC(C)C)NC(=O)[C@H](C)N(C)C(=O)[C@H](CCCNC(N)=O)NC(=O)[C@H](Cc2ccc(-c3ccccc3)cc2)NC(=O)[C@H](C(C)C)NC(=O)[C@H](Cc2c[nH]c3ccccc23)NC(=O)[C@H](CC(=O)O)NC(=O)[C@H](Cc2ccc(C(=O)O)cc2)NC(=O)[C@H](Cc2cccnc2)NC(=O)CSC[C@@H](C(=O)N[C@@H](C)C(N)=O)NC(=O)[C@H]([C@@H](C)O)NC(=O)[C@H](C(C)C)NC1=O [Compound 1332] ({CH2CO}-[3Pal][Phe(4-COOH)]DWV[Bip][Cit][NMeA][dL][Dab]LVTCA-NH2; thioether N-14)
6,0.02,CC(C)C[C@@H]1NC(=O)[C@H](CCN)NC(=O)[C@@H](CC(C)C)NC(=O)[C@H](C)N(C)C(=O)[C@H](CCCNC(N)=O)NC(=O)[C@H](Cc2ccc(-c3ccccc3)cc2)NC(=O)[C@H](C(C)C)NC(=O)[C@H](Cc2c[nH]c3ccccc23)NC(=O)[C@H](CC(=O)O)NC(=O)[C@H](Cc2ccncc2)NC(=O)[C@H](Cc2cccnc2)NC(=O)CSC[C@@H](C(=O)N[C@@H](C)C(N)=O)NC(=O)[C@H]([C@@H](C)O)NC(=O)[C@H](C(C)C)NC1=O [Compound 1333] ({CH2CO}-[3Pal][4Pal]DWV[Bip][Cit][NMeA][dL][Dab]LVTCA-NH2; thioether N-14)
7,0.63,CC(C)C[C@@H]1NC(=O)[C@H](CCN)NC(=O)[C@@H](CC(C)C)NC(=O)[C@H](C)N(C)C(=O)[C@H](CCCNC(N)=O)NC(=O)[C@H](Cc2ccc(-c3ccccc3)cc2)NC(=O)[C@H](C(C)C)NC(=O)[C@H](Cc2c[nH]c3ccccc23)NC(=O)[C@H](CC(=O)O)NC(=O)[C@H](Cc2ccccn2)NC(=O)[C@H](Cc2cccnc2)NC(=O)CSC[C@@H](C(=O)N[C@@H](C)C(N)=O)NC(=O)[C@H]([C@@H](C)O)NC(=O)[C@H](C(C)C)NC1=O [Compound 1334] ({CH2CO}-[3Pal][2Pal]DWV[Bip][Cit][NMeA][dL][Dab]LVTCA-NH2; thioether N-14)
8,0.01,CC(C)C[C@@H]1NC(=O)[C@H](CCN)NC(=O)[C@@H](CC(C)C)NC(=O)[C@H](C)N(C)C(=O)[C@H](CCCNC(N)=O)NC(=O)[C@H](Cc2ccc(-c3ccccc3)cc2)NC(=O)[C@H](C(C)C)NC(=O)[C@H](Cc2c[nH]c3ccccc23)NC(=O)[C@H](CC(=O)O)NC(=O)[C@H](Cc2ccc(O)c([N+](=O)[O-])c2)NC(=O)[C@H](Cc2ccncc2)NC(=O)CSC[C@@H](C(=O)N[C@@H](C)C(N)=O)NC(=O)[C@H]([C@@H](C)O)NC(=O)[C@H](C(C)C)NC1=O [Compound 1336] ({CH2CO}-[4Pal][Tyr(3-NO2)]DWV[Bip][Cit][NMeA][dL][Dab]LVTCA-NH2; thioether N-14)
9,0.28,CC(C)C[C@@H]1NC(=O)[C@H](CCN)NC(=O)[C@@H](CC(C)C)NC(=O)[C@H](C)N(C)C(=O)[C@H](CCCNC(N)=O)NC(=O)[C@H](Cc2ccc(-c3ccccc3)cc2)NC(=O)[C@H](C(C)C)NC(=O)[C@H](Cc2c[nH]c3ccccc23)NC(=O)[C@H](CC(=O)O)NC(=O)[C@H](Cc2ccc(O)c([N+](=O)[O-])c2)NC(=O)[C@H](Cc2ccccn2)NC(=O)CSC[C@@H](C(=O)N[C@@H](C)C(N)=O)NC(=O)[C@H]([C@@H](C)O)NC(=O)[C@H](C(C)C)NC1=O [Compound 1337] ({CH2CO}-[2Pal][Tyr(3-NO2)]DWV[Bip][Cit][NMeA][dL][Dab]LVTCA-NH2; thioether N-14)
10,0.01,CC(C)C[C@@H]1NC(=O)[C@H](CCN)NC(=O)[C@@H](CC(C)C)NC(=O)[C@H](C)N(C)C(=O)[C@H](CCCNC(N)=O)NC(=O)[C@H](Cc2ccc(-c3ccccc3)cc2)NC(=O)[C@H](C(C)C)NC(=O)[C@H](Cc2c[nH]c3ccccc23)NC(=O)[C@H](CC(=O)O)NC(=O)[C@H](Cc2ccc(O)c([N+](=O)[O-])c2)NC(=O)[C@H](Cc2cccnc2)NC(=O)CSC[C@@H](C(=O)N[C@@H](C)C(N)=O)NC(=O)[C@H]([C@@H](C)O)NC(=O)[C@H](C(C)C)NC1=O [Compound 1338] ({CH2CO}-[3Pal][Tyr(3-NO2)]DWV[Bip][Cit][NMeA][dL][Dab]LVTCA-NH2; thioether N-14)
11,0.05,CC(C)C[C@@H]1NC(=O)[C@H](CCN)NC(=O)[C@@H](CC(C)C)NC(=O)[C@H](C)N(C)C(=O)[C@H](CCCNC(N)=O)NC(=O)[C@H](Cc2ccc(-c3ccccc3)cc2)NC(=O)[C@H](C(C)C)NC(=O)[C@H](Cc2c[nH]c3ccccc23)NC(=O)[C@H](CC(=O)O)NC(=O)[C@H](Cc2cccnc2)NC(=O)[C@H](Cc2cccnc2)NC(=O)CSC[C@@H](C(=O)N[C@@H](C)C(N)=O)NC(=O)[C@H]([C@@H](C)O)NC(=O)[C@H](C(C)C)NC1=O [Compound 1339] ({CH2CO}-[3Pal][3Pal]DWV[Bip][Cit][NMeA][dL][Dab]LVTCA-NH2; thioether N-14)
12,0.02,CC(C)C[C@@H]1NC(=O)[C@H](CCN)NC(=O)[C@@H](CC(C)C)NC(=O)[C@H](C)N(C)C(=O)[C@H](CCCNC(=N)N)NC(=O)[C@H](Cc2ccc(-c3ccccc3)cc2)NC(=O)[C@H](C(C)C)NC(=O)[C@H](Cc2c[nH]c3ccccc23)NC(=O)[C@H](CC(=O)O)NC(=O)[C@H](Cc2ccc(O)cc2)NC(=O)[C@H](CCN)NC(=O)CSC[C@@H](C(=O)N[C@@H](C)C(N)=O)NC(=O)[C@H]([C@@H](C)O)NC(=O)[C@H](C(C)C)NC1=O [Compound 1340] ({CH2CO}-[Dab]YDWV[Bip]R[NMeA][dL][Dab]LVTCA-NH2; thioether N-14)
13,0.05,CC(C)C[C@@H]1NC(=O)[C@H](CCN)NC(=O)[C@@H](CC(C)C)NC(=O)[C@H](C)N(C)C(=O)[C@H](CCCNC(=N)N)NC(=O)[C@H](Cc2ccc(-c3ccccc3)cc2)NC(=O)[C@H](C(C)C)NC(=O)[C@H](Cc2c[nH]c3ccccc23)NC(=O)[C@H](CC(=O)O)NC(=O)[C@H](Cc2ccc(O)cc2)NC(=O)[C@H](CCCN)NC(=O)CSC[C@@H](C(=O)N[C@@H](C)C(N)=O)NC(=O)[C@H]([C@@H](C)O)NC(=O)[C@H](C(C)C)NC1=O [Compound 1341] ({CH2CO}-[Orn]YDWV[Bip]R[NMeA][dL][Dab]LVTCA-NH2; thioether N-14)
14,0.04,CC(C)C[C@@H]1NC(=O)[C@H](CCN)NC(=O)[C@@H](CC(C)C)NC(=O)[C@H](C)N(C)C(=O)[C@H](CCCNC(=N)N)NC(=O)[C@H](Cc2ccc(-c3ccccc3)cc2)NC(=O)[C@H](C(C)C)NC(=O)[C@H](Cc2c[nH]c3ccccc23)NC(=O)[C@H](CC(=O)O)NC(=O)[C@H](Cc2ccc(O)cc2)NC(=O)[C@H](CCCNC(=N)N)NC(=O)CSC[C@@H](C(=O)N[C@@H](C)C(N)=O)NC(=O)[C@H]([C@@H](C)O)NC(=O)[C@H](C(C)C)NC1=O [Compound 1343] ({CH2CO}-RYDWV[Bip]R[NMeA][dL][Dab]LVTCA-NH2; thioether N-14)
15,0.07,CC(C)C[C@@H]1NC(=O)[C@H](CCN)NC(=O)[C@@H](CC(C)C)NC(=O)[C@H](C)N(C)C(=O)[C@H](CCCNC(=N)N)NC(=O)[C@H](Cc2ccc(-c3ccccc3)cc2)NC(=O)[C@H](C(C)C)NC(=O)[C@H](Cc2c[nH]c3ccccc23)NC(=O)[C@H](CC(=O)O)NC(=O)[C@H](Cc2ccc(O)cc2)NC(=O)[C@H](CCCCNC(=N)N)NC(=O)CSC[C@@H](C(=O)N[C@@H](C)C(N)=O)NC(=O)[C@H]([C@@H](C)O)NC(=O)[C@H](C(C)C)NC1=O [Compound 1344] ({CH2CO}-[hArg]YDWV[Bip]R[NMeA][dL][Dab]LVTCA-NH2; thioether N-14)
